Laboratory results reported in patent US11833160B2, “Ursodeoxycholic acid derivatives as HDAC inhibitors for the treatment of polycystic diseases” (UNIVERSIDAD DEL PAIS VASCO/EUSKAL HERRIKO UNIBERTSITATEA, priority 2017, dated 2023).

Experiments:
human HDAC5 = molecular target: T1, human HDAC5 (Homo sapiens, UniProt Q9UQL6); experiment: HDAC5 enzymatic activity assay (fluorogenic peptide); type: biochemical; conditions: 10-dose, 3-fold serial dilution, triplicate
T1 construct: GST (N); purchased BioMol, Hamburg, Germany; host or cells: baculovirus / Sf9 cells
T1 sequence (Q9UQL6 1-1123 isoform Q9UQL6-3): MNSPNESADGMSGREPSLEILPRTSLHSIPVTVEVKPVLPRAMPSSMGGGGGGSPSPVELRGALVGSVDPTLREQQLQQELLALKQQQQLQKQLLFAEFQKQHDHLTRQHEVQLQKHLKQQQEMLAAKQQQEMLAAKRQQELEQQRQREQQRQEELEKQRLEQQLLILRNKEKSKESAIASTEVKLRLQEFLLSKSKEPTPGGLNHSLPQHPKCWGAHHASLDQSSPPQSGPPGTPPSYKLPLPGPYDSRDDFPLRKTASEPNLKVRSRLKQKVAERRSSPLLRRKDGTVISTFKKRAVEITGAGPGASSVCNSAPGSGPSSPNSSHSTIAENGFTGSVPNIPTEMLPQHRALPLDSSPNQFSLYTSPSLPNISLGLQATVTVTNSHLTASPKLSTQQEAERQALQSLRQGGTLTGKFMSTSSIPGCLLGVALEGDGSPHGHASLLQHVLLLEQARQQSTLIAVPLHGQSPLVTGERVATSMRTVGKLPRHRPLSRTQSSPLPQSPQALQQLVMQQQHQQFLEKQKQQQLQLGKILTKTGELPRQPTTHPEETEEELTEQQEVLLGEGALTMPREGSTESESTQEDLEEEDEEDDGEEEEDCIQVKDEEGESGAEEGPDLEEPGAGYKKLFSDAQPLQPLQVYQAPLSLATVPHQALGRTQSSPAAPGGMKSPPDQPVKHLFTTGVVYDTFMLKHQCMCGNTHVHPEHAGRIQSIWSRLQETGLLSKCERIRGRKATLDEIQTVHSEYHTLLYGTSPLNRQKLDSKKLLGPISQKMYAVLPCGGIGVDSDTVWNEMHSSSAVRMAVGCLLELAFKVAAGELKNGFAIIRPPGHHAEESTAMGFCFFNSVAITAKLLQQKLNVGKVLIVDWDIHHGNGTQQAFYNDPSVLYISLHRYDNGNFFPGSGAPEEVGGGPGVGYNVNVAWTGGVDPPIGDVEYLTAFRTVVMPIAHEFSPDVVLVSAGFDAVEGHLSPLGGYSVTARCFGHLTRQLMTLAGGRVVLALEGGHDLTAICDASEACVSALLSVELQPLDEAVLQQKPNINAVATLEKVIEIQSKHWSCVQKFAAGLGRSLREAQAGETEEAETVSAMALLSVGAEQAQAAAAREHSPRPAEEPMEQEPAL
Description: Peptide substrates: all HDAC assays were performed using acetylated peptide substrates labeled with 7-amino-4-methylcoumarin (AMC): • Substrate for isoforms HDAC1, 2, 3, 6, 10, 11, and HeLa nuclear extract assays: acetylated fluorogenic peptide from p53 residues 379-382 (RHKKAc). • Substrate for isoforms HDAC4, 5, 7, 9: fluorogenic Boc-L-Lys (s-trifluoroacetyl)-AMC. • Substrate for HDAC8 assays: acetylated fluorogenic peptide from p53 residues 379-382 (RHKAcKAc).
50 μl of peptide substrate (see “peptide substrates” section above) and an optimal concentration of the corresponding enzyme (see “enzymes” section above) in the assay buffer at a final DMSO concentration of 1% were incubated in the presence of gradient concentrations of inhibitors (10-dose IC50 mode with 3-fold serial dilution) at 30° C. for 2 hours. The reactions were carried out in a 96-well microplate for fluorometry in a 50 μl reaction volume. After the deacetylation reaction, Fluor-de-Lys-Developer (BioMol Cat. #KI-105) was added to each well to digest the deacetylated substrate, thereby producing the fluorescent signal. The reaction was carried out for 45 minutes at 30° C. with 5% CO2; the fluorescent signal was then measured using an excitation wavelength of 360 nm and an emission wavelength of 460 nm in a microplate-reading fluorometer (GeminiXS, Molecular Devices, Sunnyvale, CA). […]

[1] = test system: normal human cholangiocytes (NHC3); experiment: Primary cilium length (cilium staining, confocal microscopy), normal cells; type: cell-based; conditions: after treatment
Description: Cilium staining. Cells cultured on cover slips were washed with PBS, fixed with methanol, and blocked for one hour in a blocking buffer at room temperature. The γ-tubulin primary antibodies (1:100; Sigma-Aldrich, St Louis, MO) and acetylated α-tubulin primary antibodies (1:1000; Sigma-Aldrich) or IFT88 primary antibodies (1:100; ProteinTech, Rosemont, IL, USA) were incubated overnight at 4° C. After washing, Alexa Fluor 594 and 488 secondary antibodies were combined with the primary antibodies (Life Technologies, Carlsbad, CA, USA) and incubated for 2 hours at room temperature. The cover slips were placed on slides with Prolong Gold Antifade with Dapi (Invitrogen, Carlsbad, CA, USA). The slides were observed and images were taken using laser scanning confocal microscopy with a 60× objective (NIKON C1si Confocal Spectral Imaging System, NIKON Instruments Co., Melville, NY, USA). The field was magnified 4× to observe individual cilia. The images were opened with EZ-C1 3.90 Freeviewer and a scale bar was added. The images were converted to Tiff files and quantified using ImageJ Software. The scale bar saved in the image was measured and the scale established. Using the freehand tool, the cilia were traced and measurements taken.

[2] = test system: polycystic human cholangiocytes; experiment: CFSE proliferation protocol by flow cytometry; type: cell-based
Description: The proliferation of polycystic human cholangiocytes at 48 hours in the absence or presence of different doses of compound Ia (10, 50, 100, μM) in a quiescence culture medium was analyzed. To that end, the CFSE proliferation protocol (Invitrogen) was used using flow cytometry.

SMILES: C[C@H](CCC(=O)NCc1ccc(C(=O)NO)cc1)[C@H]1CC[C@H]2[C@@H]3[C@@H](O)C[C@@H]4C[C@H](O)CC[C@]4(C)[C@H]3CC[C@]12C [Compound Ia]
- IC50 (human HDAC5): 14.1 µM
- length of the cilia, normal human cholangiocytes [1]: did not lead to any significant variations
- proliferation of polycystic human cholangiocytes ([2]; 48 hours, 10, 50, 100 μM, quiescence culture medium): inhibits the hyper-proliferation of polycystic human cholangiocytes in vitro in a dose-dependent manner
- inhibition of proliferation compared with UDCA ([2]; 48 hours, UDCA at 100 μM): with a higher intensity than UDCA
